Values of other authors in patent publication US20260345512A1, “TRANSDERMAL DELIVERY OF DEXTROMETHORPHAN” (SHINKEI THERAPEUTICS, INC., priority 2022, published 2026).

Experiments:
[1] = without enhancer
[2] = dextromethorphan alone

| Structure (SMILES) | transdermal delivery rate relative to beta estradiol [1] | adverse reactions reported with use of the individual component [2] |
| --- | --- | --- |
| C[C@]12CC[C@H]3[C@@H](CCC4=CC(=O)CC[C@@]43C)[C@@H]1CC[C@@H]2O [testosterone] | three orders of magnitude higher |  |
| COc1ccc2c(c1)[C@]13CCCC[C@@H]1[C@H](C2)N(C)CC3 [dextromethorphan] |  | drowsiness, dizziness, nervousness or restlessness, nausea, vomiting, and stomach pain |
